Experimental data taken from US6664246B2, “Pharmaceutical composition” (MRC Holdings PTY Limited, priority 1999, dated 2003).

Assays:
[1] = Dissolution of 1,25(OH)2D3 in iodised poppy seed oil; assay type: physicochemical; conditions: in one ml of iodised poppy seed oil
Protocol: For example, 2 mg of 1,25(OH)2 D3 can be readily dissolved in one ml of iodised poppy seed oil.

HepG2 cells [2] = assay: [3H]thymidine incorporation cell proliferation assay; assay type: cell-based, human
Protocol: (§1) Following exposure of cells to vitamin D3 dissolved in normal or lipiodol (1% v/v) containing media. [^3H]thymidine incorporation assay and the trypan blue exclusion cell count methods were used to determine cell proliferation. To do this, cells were plated in 24 well tissue culture plates at 10^4 cells per well and incubated for 24 h in an incubator at 37° C. with humidified 5% CO2 atmosphere. The, medium was replaced with one containing vitamin D3(10^−11 to 10^−7 M) dissolved in either the normal medium or first dissolved in lipiodol and then mixed thoroughly with the medium to make a final lipiodol concentration of 1% (v/v). For acute dose studies, cells were exposed to one of the two drug containing media for 24 h, which were then replaced with drug free medium for the next four days. Whilst, in chronic treatment, cells were exposed for 5 days to different concentrations of the drug dissolved in one of the media described above. The media were changed on alternate days. At the end of treatment period, cell cultures were assayed for thymidine incorporation by the addition of 0.1μ Ci of [^3H]thymidine to each well for the last 4 h of culture. The amount of radioactivity incorporated into trichloroacetic acid precipitatable material was determined using a β-scintillation counter. Results are plotted as percentage inhibition relative to control. […]

HepG2 cells [3] = assay: Trypan blue exclusion cell count assay; assay type: cell-based, human
Protocol: as §1, with “At the end of treatment period, cell cultures were assayed for thymidine incorporation by the addition of 0.1μ Ci of [^3H]thymidine to each well for the last 4 h of culture.” left out, “counter.” for “counter. Results are plotted as percentage inhibition relative to control.”
For the cell count assay, cells were plated in six well plates at a concentration of 5×10^4 cells per well. […] At the end of the treatment period (5 days), cells were trypsinised and counted with a hemocytometer. […]

[4] = Radiolabelled vitamin D3 levels in liver, tumor and plasma after hepatic artery injection in Novikoff tumor bearing rats; assay type: in vivo, Sprague-Dawley rats; conditions: 1 hour post injection
Protocol: Male 300-350 gr. Sprague-Dawely rats were given a general anaesthetic (halothane) and a lapratomy performed. Then 5×10^6 Novikoff cells suspended in 100 μl of medium was instilled beneath the liver capsule using a 26G3/8-tuberculin needle. The abdominal incision was then closed with gut suture.
Animals were then left for 10 days with food and water available ad libitum and monitored daily to assess health and well being. After this period, animals were randomly allocated to one of the treatment groups (n=6 per group) and lapratomy was performed again. A catheter was inserted into the hepatic artery of the animal, through which radiolabelled vitamin D3 or vehicle injections were carried out. The different experimental groups treated were as follows:
After administration of the drug, the catheter was removed and the incision sutured. Animals were euthanased at 1 hour, 1, and 3 days post drug (or vehicle) administration. Just before euthanasing, 3 ml of blood was drawn through cardiac puncture from each animal.
Post mortem, the liver and the tumor of each animal was excised, weighed and frozen in the freezer until analysis. After tissue homogenization, liver, tumor or plasma was extracted with dichloromethane. The amount of hot vitamin D3 present in each sample was determined using a β-counter.

Novikoff = assay: Screening of rat cell lines for responsiveness to vitamin D3; assay type: cell-based; conditions: 10^-11-10^-6 M
Source text: (§2) 2. In order to find an appropriate cell line, which would grow in the rat tumor and also be responsive to vitamin D3, rat cell lines, Novikoff and HTC were screened for responsiveness to vitamin D3(10^−11-10^−6 M).

HTC = assay: as above; assay type: cell-based; conditions: 10^-6 M, read-out: inhibition of proliferation
Source text: as §2

| Structure (SMILES) | amount readily dissolved [1] [mg] | thymidine incorporation compared to control, acute treatment (HepG2 cells [2]; 1 day exposure to drug, then 4 days medium without drug) | thymidine incorporation versus control, chronic treatment (HepG2 cells [2]; 5 days exposure, all concentrations (10^-11 to 10^-7 M)) | cell number, acute treatment (HepG2 cells [3]; 10^-7 M, 1 day exposure, then 4 days drug free) | cell number, chronic treatment (HepG2 cells [3]; 5 days exposure) | level of radioactivity in liver, tumor and plasma [4] | responsiveness of cell line to vitamin D3 (Novikoff) | inhibition at 1 µM (HTC) [%] |
| --- | --- | --- | --- | --- | --- | --- | --- | --- |
| C=C1/C(=C\C=C2/CCC[C@]3(C)[C@@H]([C@H](C)CCCC(C)(C)O)CC[C@@H]23)C[C@@H](O)C[C@@H]1O [1,25(OH)2 D3, 1,25-dihydroxycholecalciferol] | 2 | – | – | – | – | – | – | – |
| C=C1CC[C@H](O)C/C1=C/C=C1\CCC[C@]2(C)[C@@H]([C@H](C)CCCC(C)C)CC[C@@H]12 [vitamin D3, cholecalciferol] | – | did not show a reduction in thymidine incorporation | significant reduction in thymidine incorporation | significant reduction in cell number | dose dependant decrease in call number | high in all three samples | non responsive | ~50 |
